pIC50: −log10 of the molar value.
Target: URAT-1 transporter (Homo sapiens (Human), UniProt Q96S37)
Assay: URAT-1 inhibitor activity: [14C]-uric acid uptake in CHO-URAT1(L)GFP#8 (CHO#8) cells, scintillation proximity
Type: cell-based
Conditions: inhibition of [14C]-uric acid (30 nM) uptake into CHO#8 cells; compound 0 to 10 μM; 4 parameter logistic fit
In short: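 CHO cells stably expressing human URAT1 long isoform–eGFP fusion, pre-incubated 1 h in chloride-containing buffer pH 7.4, then given 30 nM [14C]-uric acid with compound (0–10 μM, 0.25% DMSO) in chloride-free gluconate buffer pH 7.4. Uptake measured by scintillation proximity on Cytostar plates.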

Sequence of URAT-1 transporter (Q96S37 other isoform, or with tags, fused parts or gaps): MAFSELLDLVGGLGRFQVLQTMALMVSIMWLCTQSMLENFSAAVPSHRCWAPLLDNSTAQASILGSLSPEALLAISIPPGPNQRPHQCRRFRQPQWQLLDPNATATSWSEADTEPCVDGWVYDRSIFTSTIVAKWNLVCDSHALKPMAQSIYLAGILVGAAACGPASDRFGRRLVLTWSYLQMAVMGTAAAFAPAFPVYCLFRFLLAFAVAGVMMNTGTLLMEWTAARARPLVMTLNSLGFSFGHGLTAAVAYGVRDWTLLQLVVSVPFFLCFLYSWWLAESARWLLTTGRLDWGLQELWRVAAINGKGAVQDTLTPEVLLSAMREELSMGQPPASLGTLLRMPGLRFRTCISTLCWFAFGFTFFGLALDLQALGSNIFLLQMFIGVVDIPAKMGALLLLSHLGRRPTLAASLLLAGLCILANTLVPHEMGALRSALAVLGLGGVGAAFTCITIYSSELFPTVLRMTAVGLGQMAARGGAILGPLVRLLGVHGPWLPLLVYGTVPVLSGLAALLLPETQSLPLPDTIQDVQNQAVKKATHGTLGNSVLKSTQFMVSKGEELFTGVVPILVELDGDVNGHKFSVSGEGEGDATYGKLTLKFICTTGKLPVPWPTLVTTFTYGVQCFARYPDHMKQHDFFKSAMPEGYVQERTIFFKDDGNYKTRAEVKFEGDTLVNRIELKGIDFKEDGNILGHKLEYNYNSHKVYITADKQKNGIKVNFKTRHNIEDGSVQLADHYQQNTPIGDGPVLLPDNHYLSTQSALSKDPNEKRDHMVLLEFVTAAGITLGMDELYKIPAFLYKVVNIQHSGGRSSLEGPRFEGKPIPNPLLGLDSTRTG

Going from `Cc1ccc(Oc2ccc(S(=O)(=O)Nc3ccc(F)cn3)cc2C#N)c(Cl)c1` [Example 42, 4-(2-chloro-4-methylphenoxy)-3-cyano-N-(5-fluoropyridin-2-yl)benzenesulfonamide] to `Cc1ccc(C)c(Oc2ccc(S(=O)(=O)Nc3ccc(F)cn3)cc2C#N)c1` [Example 158, 3-cyano-4-(2,5-dimethylphenoxy)-N-(5-fluoropyridin-2-yl)benzenesulfonamide], the pIC50 rises from 6.42 to 6.91 (0.49 log units). The second is the more potent here.

`CC(C)(C)c1cccc(Oc2ccc(S(=O)(=O)Nc3ccc(F)cn3)cc2C#N)c1` [Example 129, 4-(3-tert-butylphenoxy)-3-cyano-N-(5-fluoropyridin-2-yl)benzenesulfonamide] and `CC(C)(C)c1ccc(Oc2ccc(S(=O)(=O)Nc3ccc(F)cn3)cc2C#N)c(Cl)c1` [Example 127, 4-(4-tert-butyl-2-chlorophenoxy)-3-cyano-N-(5-fluoropyridin-2-yl)benzenesulfonamide] cannot be ordered by pIC50: < 5.00 for the first, < 5.00 for the second.

First: N#Cc1cc(S(=O)(=O)Nc2ccc(F)cn2)ccc1Oc1ccc(F)c(Cl)c1Cl [Example 38, 3-cyano-4-(2,3-dichloro-4-fluorophenoxy)-N-(5-fluoropyridin-2-yl)benzenesulfonamide]
Second: COc1c(F)ccc(Oc2ccc(S(=O)(=O)Nc3ccc(F)cn3)cc2C#N)c1Cl [Example 112, 4-(2-chloro-4-fluoro-3-methoxyphenoxy)-3-cyano-N-(5-fluoropyridin-2-yl)benzenesulfonamide]
The pIC50 of the first is 0.51 log units higher: 7.26 for the first, 6.75 for the second.

Compared with `N#Cc1cc(S(=O)(=O)Nc2ccc(F)cn2)ccc1Oc1cccc(F)c1F` [Example 16, 3-cyano-4-(2,3-difluorophenoxy)-N-(5-fluoropyridin-2-yl)benzenesulfonamide], `N#Cc1cc(S(=O)(=O)Nc2ccc(F)cn2)ccc1Oc1cccc(C#N)c1F` [Example 75, 3-cyano-4-(3-cyano-2-fluorophenoxy)-N-(5-fluoropyridin-2-yl)benzenesulfonamide] is 1.00 log units lower in pIC50: 6.66 for the first, 5.66 for the second. The first is the more potent here.

Compared with `N#Cc1cc(S(=O)(=O)Nc2ccc(F)cn2)ccc1Oc1ccc(CO)c(Cl)c1` [Example 247, 4-[3-chloro-4-(hydroxymethyl)phenoxy]-3-cyano-N-(5-fluoropyridin-2-yl)benzenesulfonamide], `CCOc1ccc(Oc2ccc(S(=O)(=O)Nc3ccc(F)cn3)cc2C#N)cc1Cl` [Example 116, 4-(3-chloro-4-ethoxyphenoxy)-3-cyano-N-(5-fluoropyridin-2-yl)benzenesulfonamide] is lower in pIC50: 9.00 for the first, < 5.00 for the second.

`COc1ccc(F)cc1Oc1ccc(S(=O)(=O)Nc2ccc(F)cn2)cc1C#N` [Example 120, 3-cyano-4-(5-fluoro-2-methoxyphenoxy)-N-(5-fluoropyridin-2-yl)benzenesulfonamide] and `CC(C)Oc1ccc(F)cc1Oc1ccc(S(=O)(=O)Nc2ccc(F)cn2)cc1C#N` [Example 156, 3-cyano-4-[5-fluoro-2-(propan-2-yloxy)phenoxy]-N-(5-fluoropyridin-2-yl)benzenesulfonamide] cannot be ordered by pIC50: < 5.00 for the first, < 5.00 for the second.

Going from `N#Cc1ccc(Oc2ccc(S(=O)(=O)Nc3ccc(F)cn3)cc2C#N)cn1` [Example 205, 3-cyano-4-[(6-cyanopyridin-3-yl)oxy]-N-(5-fluoropyridin-2-yl)benzenesulfonamide] to `N#Cc1cncc(Oc2ccc(S(=O)(=O)Nc3ccc(F)cn3)cc2C#N)c1` [Example 206, 3-cyano-4-[(5-cyanopyridin-3-yl)oxy]-N-(5-fluoropyridin-2-yl)benzenesulfonamide], the pIC50 rises from 5.58 to 5.96 (0.38 log units).

Compared with `Cc1cc(Oc2ccc(S(=O)(=O)Nc3ccc(F)cn3)cc2C#N)ccc1F` [Example 141, 3-cyano-4-(4-fluoro-3-methylphenoxy)-N-(5-fluoropyridin-2-yl)benzenesulfonamide], `Cc1cc(Oc2ccc(S(=O)(=O)Nc3ccc(F)cn3)cc2C#N)ccc1C(C)C` [Example 139, 3-cyano-N-(5-fluoropyridin-2-yl)-4-[3-methyl-4-(propan-2-yl)phenoxy]benzenesulfonamide] is lower in pIC50: 7.37 for the first, < 5.00 for the second.

Compared with `COc1cccc(C)c1Oc1ccc(S(=O)(=O)Nc2ccc(F)cn2)cc1C#N` [Example 115, 3-cyano-N-(5-fluoropyridin-2-yl)-4-(2-methoxy-6-methylphenoxy)benzenesulfonamide], `COc1cccc(F)c1Oc1ccc(S(=O)(=O)Nc2ccc(F)cn2)cc1C#N` [Example 111, 3-cyano-4-(2-fluoro-6-methoxyphenoxy)-N-(5-fluoropyridin-2-yl)benzenesulfonamide] is 0.49 log units lower in pIC50: 7.62 for the first, 7.13 for the second.

`N#Cc1cc(S(=O)(=O)Nc2ccc(F)cn2)ccc1Oc1cc(F)cc(F)c1` [Example 11, 3-cyano-4-(3,5-difluorophenoxy)-N-(5-fluoropyridin-2-yl)benzenesulfonamide] and `COc1cc(Cl)cc(Oc2ccc(S(=O)(=O)Nc3ccc(F)cn3)cc2C#N)c1` [Example 162, 4-(3-chloro-5-methoxyphenoxy)-3-cyano-N-(5-fluoropyridin-2-yl)benzenesulfonamide] are the same in pIC50: 6.90 for the first, 6.90 for the second.

`Cc1ccc(NS(=O)(=O)c2ccc(Oc3cccc(Cl)c3C#N)cc2)nc1` [Example 221, 4-(3-chloro-2-cyanophenoxy)-N-(5-methylpyridin-2-yl)benzenesulfonamide] and `CC(C)c1ccc(Oc2ccc(S(=O)(=O)Nc3ccc(F)cn3)cc2C#N)cc1` [Example 126, 3-cyano-N-(5-fluoropyridin-2-yl)-4-[4-(propan-2-yl)phenoxy]benzenesulfonamide] cannot be ordered by pIC50: < 5.00 for the first, < 5.00 for the second.

`N#Cc1cc(S(=O)(=O)Nc2ccc(F)cn2)ccc1Oc1cccnc1` [Example 194, 3-cyano-N-(5-fluoropyridin-2-yl)-4-(pyridin-3-yloxy)benzenesulfonamide] and `COc1cccc(Oc2ccc(S(=O)(=O)Nc3ccc(F)cn3)cc2C#N)c1` [Example 208, 3-cyano-N-(5-fluoropyridin-2-yl)-4-(3-methoxyphenoxy)benzenesulfonamide] cannot be ordered by pIC50: < 5.00 for the first, < 5.00 for the second.

Going from `N#Cc1ccc(Oc2ccc(S(=O)(=O)Nc3ncc(F)cn3)cc2C#N)cc1Cl` [Example 91, 4-(3-chloro-4-cyanophenoxy)-3-cyano-N-(5-fluoropyrimidin-2-yl)benzenesulfonamide] to `N#Cc1ccc(Oc2ccc(S(=O)(=O)Nc3ncccc3F)cc2C#N)cc1Cl` [Example 103, 4-(3-chloro-4-cyanophenoxy)-3-cyano-N-(3-fluoropyridin-2-yl)benzenesulfonamide], the pIC50 rises from 5.71 to 6.84 (1.13 log units).

`Cc1cccnc1NS(=O)(=O)c1ccc(Oc2ccc(C#N)c(Cl)c2)c(C#N)c1` [Example 101, 4-(3-chloro-4-cyanophenoxy)-3-cyano-N-(3-methylpyridin-2-yl)benzenesulfonamide] and `N#Cc1ccc(Oc2ccc(S(=O)(=O)Nc3cccnc3)cc2C#N)cc1Cl` [Example 92, 4-(3-chloro-4-cyanophenoxy)-3-cyano-N-(pyridin-3-yl)benzenesulfonamide] are within 0.2 log units of each other in pIC50: 6.23 for the first, 6.38 for the second.

Going from `N#Cc1ccc(Oc2ccc(S(=O)(=O)Nc3ccncn3)cc2C#N)cc1Cl` [Example 87, 4-(3-chloro-4-cyanophenoxy)-3-cyano-N-(pyrimidin-4-yl)benzenesulfonamide] to `N#Cc1ccc(Oc2ccc(S(=O)(=O)Nc3ccc(Cl)cn3)cc2C#N)cc1Cl` [compound 232, 4-(3-chloro-4-cyanophenoxy)-N-(5-chloropyridin-2-yl)-3-cyanobenzenesulfonamide], the pIC50 rises from < 5.11 to 7.92.

Compared with `Cc1ccc(Oc2ccc(S(=O)(=O)Nc3ccc(F)cn3)cc2C#N)c(F)c1F` [Example 128, 3-cyano-4-(2,3-difluoro-4-methylphenoxy)-N-(5-fluoropyridin-2-yl)benzenesulfonamide], `N#Cc1cc(F)ccc1Oc1ccc(S(=O)(=O)Nc2ccc(F)cn2)cc1C#N` [Example 36, 3-cyano-4-(2-cyano-4-fluorophenoxy)-N-(5-fluoropyridin-2-yl)benzenesulfonamide] is higher in pIC50: < 5.00 for the first, 6.62 for the second. The second is the more potent here.

`CCOc1cc(Cl)ccc1Oc1ccc(S(=O)(=O)Nc2ccc(F)cn2)cc1C#N` [Example 110, 4-(4-chloro-2-ethoxyphenoxy)-3-cyano-N-(5-fluoropyridin-2-yl)benzenesulfonamide] and `COc1cc(Cl)ccc1Oc1ccc(S(=O)(=O)Nc2ccc(F)cn2)cc1C#N` [Example 143, 4-(4-chloro-2-methoxyphenoxy)-3-cyano-N-(5-fluoropyridin-2-yl)benzenesulfonamide] are within 0.2 log units of each other in pIC50: 6.91 for the first, 7.10 for the second.

First: Cc1cc(Oc2ccc(S(=O)(=O)Nc3ccc(F)cn3)cc2C#N)cc(C)c1C#N [compound 235, 3-cyano-4-({4-cyano-3,5-bis[methyl-D3]-2,3-D2-phenyl}oxy)-N-(5-fluoropyridin-2-yl)benzenesulfonamide]
Second: COc1cc(Oc2ccc(S(=O)(=O)Nc3ccc(F)cn3)cc2C#N)ccc1C#N [Example 76, 3-cyano-4-(4-cyano-3-methoxyphenoxy)-N-(5-fluoropyridin-2-yl)benzenesulfonamide]
The pIC50 of the first is 0.65 log units higher: 7.89 for the first, 7.24 for the second. The first is the more potent here.

First: N#Cc1cc(S(=O)(=O)Nc2ccc(F)cn2)ccc1Oc1cnc(OC(F)F)c(Cl)c1 [compound 231]
Second: N#Cc1ccc(F)c(Oc2ccc(S(=O)(=O)Nc3ccc(F)cn3)cc2C#N)c1 [Example 69, 3-cyano-4-(5-cyano-2-fluorophenoxy)-N-(5-fluoropyridin-2-yl)benzenesulfonamide]
The pIC50 of the first is 1.40 log units higher: 7.28 for the first, 5.88 for the second.

First: CC(C)c1ccccc1Oc1ccc(S(=O)(=O)Nc2ccc(F)cn2)cc1C#N [Example 49, 3-cyano-N-(5-fluoropyridin-2-yl)-4-[2-(propan-2-yl)phenoxy]benzenesulfonamide]
Second: N#Cc1ccc(Oc2ccc(S(=O)(=O)Nc3ccc(F)cn3)c(F)c2)cc1F [Example 99, 4-(4-cyano-3-fluorophenoxy)-2-fluoro-N-(5-fluoropyridin-2-yl)benzenesulfonamide]
The pIC50 of the first is lower: < 5.86 for the first, 7.54 for the second. The second is the more potent here.

`O=S(=O)(Nc1ncccn1)c1cc(Cl)c(Oc2ccc(Cl)cc2OC(F)F)cc1F` [Example 83, 5-chloro-4-[4-chloro-2-(difluoromethoxy)phenoxy]-2-fluoro-N-(pyrimidin-2-yl)benzenesulfonamide] and `N#Cc1cc(Oc2ccc(S(=O)(=O)Nc3ncccn3)cc2C#N)ccc1F` [compound 209] cannot be ordered by pIC50: < 5.22 for the first, < 5.00 for the second.

From patent US9067922B2, “Chemical compounds” (Pfizer Limited, priority 2013, dated 2015)
